Measurements reported in ChEMBL document CHEMBL4390652, “Design, biological evaluation and X-ray crystallography of nanomolar multifunctional ligands targeting simultaneously acetylcholinesterase and glycogen synthase kinase-3” (Eur J Med Chem, 2019).

What was measured:
[1] = biological target: Activated CDC42 kinase 1 (Homo sapiens) (UniProt Q07912); assay: Binding affinity to wild-type human partial length TNK2 (S159 to D474 residues) expressed in bacterial expression system assessed as residual binding level at 10 uM by Kinomescan method relative to control
[2] = biological target: Serine/threonine-protein kinase Nek9 (Homo sapiens) (UniProt Q8TD19); assay: Binding affinity to wild-type human partial length NEK9 (P32 to R328 residues) expressed in bacterial expression system assessed as residual binding level at 10 uM by Kinomescan method relative to control
[3] = biological target: Mitogen-activated protein kinase 14 (Homo sapiens) (UniProt Q16539); assay: Binding affinity to wild-type human full length p38-alpha (M1 to S360 residues) expressed in bacterial expression system assessed as residual binding level at 10 uM by Kinomescan method relative to control
[4] = biological target: Mitogen-activated protein kinase 15 (Homo sapiens) (UniProt Q8TD08); assay: Binding affinity to wild-type human partial length ERK8 (M1 to P437 residues) expressed in bacterial expression system assessed as residual binding level at 10 uM by Kinomescan method relative to control
[5] = biological target: Serine/threonine-protein kinase Nek3 (Homo sapiens) (UniProt P51956); assay: Binding affinity to wild-type human full length NEK3 (M1 to R506 residues) expressed in mammalian expression system assessed as residual binding level at 10 uM by Kinomescan method relative to control
Serine/threonine-protein kinase Nek3 (Homo sapiens), sequence (P51956 whole entry, the tested form may be a part): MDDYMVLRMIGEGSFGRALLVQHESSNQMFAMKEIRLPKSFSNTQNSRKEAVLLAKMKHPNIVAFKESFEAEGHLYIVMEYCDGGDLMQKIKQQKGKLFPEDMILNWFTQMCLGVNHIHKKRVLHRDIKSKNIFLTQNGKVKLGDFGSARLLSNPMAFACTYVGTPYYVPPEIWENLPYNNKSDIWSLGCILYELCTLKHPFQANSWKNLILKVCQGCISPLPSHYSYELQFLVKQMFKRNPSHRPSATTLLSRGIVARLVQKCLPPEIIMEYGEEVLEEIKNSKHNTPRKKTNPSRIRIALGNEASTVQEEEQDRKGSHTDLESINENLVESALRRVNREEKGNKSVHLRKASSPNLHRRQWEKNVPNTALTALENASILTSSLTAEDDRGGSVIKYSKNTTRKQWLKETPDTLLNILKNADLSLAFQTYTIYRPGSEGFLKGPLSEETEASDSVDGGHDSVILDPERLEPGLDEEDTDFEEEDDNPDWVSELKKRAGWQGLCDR

[6] = biological target: Ephrin type-A receptor 2 (Homo sapiens) (UniProt P29317); assay: Binding affinity to wild-type human partial length EPHA2 (T593 to V891 residues) expressed in bacterial expression system assessed as residual binding level at 10 uM by Kinomescan method relative to control
[7] = biological target: TRAF2 and NCK-interacting protein kinase (Homo sapiens) (UniProt Q9UKE5); assay: Binding affinity to wild-type human partial length TNIK (D4 to K311 residues) expressed in bacterial expression system assessed as residual binding level at 10 uM by Kinomescan method relative to control
[8] = biological target: Vascular endothelial growth factor receptor 3 (Homo sapiens) (UniProt P35916); assay: Binding affinity to wild-type human partial length FLT4 (E821 to E1196 residues) expressed in bacterial expression system assessed as residual binding level at 10 uM by Kinomescan method relative to control
[9] = biological target: Non-receptor tyrosine-protein kinase TNK1 (Homo sapiens) (UniProt Q13470); assay: Binding affinity to wild-type human full length TNK1 (M1 to P661 residues) expressed in bacterial expression system assessed as residual binding level at 10 uM by Kinomescan method relative to control
[10] = tested on: Mast/stem cell growth factor receptor Kit (Homo sapiens), P10721 [UNDEFINED MUTATION]; assay: Binding affinity to human partial length KIT V559D/V654 double mutant (Y545 to D952 residues) expressed in bacterial expression system assessed as residual binding level at 10 uM by Kinomescan method relative to control
[11] = biological target: Ribosomal protein S6 kinase alpha-1 (Homo sapiens) (UniProt Q15418); assay: Binding affinity to wild-type human partial length N-terminal RSK1 Kinase domain 1 (M1 to E388 residues) expressed in bacterial expression system assessed as residual binding level at 10 uM by Kinomescan method relative to control
Ribosomal protein S6 kinase alpha-1 (Homo sapiens), sequence (Q15418 whole entry, the tested form may be a part): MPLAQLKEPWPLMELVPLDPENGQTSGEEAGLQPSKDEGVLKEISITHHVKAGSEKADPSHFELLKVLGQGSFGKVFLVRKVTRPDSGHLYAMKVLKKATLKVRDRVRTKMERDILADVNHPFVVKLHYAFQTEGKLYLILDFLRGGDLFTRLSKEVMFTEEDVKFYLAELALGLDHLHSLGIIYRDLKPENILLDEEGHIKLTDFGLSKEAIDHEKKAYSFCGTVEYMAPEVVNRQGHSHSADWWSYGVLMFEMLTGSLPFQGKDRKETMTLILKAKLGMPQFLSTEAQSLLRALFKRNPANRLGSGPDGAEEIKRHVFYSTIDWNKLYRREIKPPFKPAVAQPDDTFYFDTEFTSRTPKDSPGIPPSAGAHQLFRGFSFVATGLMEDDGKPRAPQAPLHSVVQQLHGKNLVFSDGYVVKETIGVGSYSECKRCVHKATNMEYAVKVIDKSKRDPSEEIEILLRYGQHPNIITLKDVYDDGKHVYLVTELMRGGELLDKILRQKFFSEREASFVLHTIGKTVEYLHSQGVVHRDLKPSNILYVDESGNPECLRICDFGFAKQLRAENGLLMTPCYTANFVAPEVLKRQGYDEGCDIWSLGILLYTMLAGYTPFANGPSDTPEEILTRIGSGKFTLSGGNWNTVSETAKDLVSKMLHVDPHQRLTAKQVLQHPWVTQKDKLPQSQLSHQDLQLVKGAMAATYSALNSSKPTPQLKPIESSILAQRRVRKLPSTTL

[12] = biological target: Cyclin-dependent kinase-like 2 (Homo sapiens) (UniProt Q92772); assay: Binding affinity to wild-type human partial length CDKL2 (M1 to D327 residues) expressed in bacterial expression system assessed as residual binding level at 10 uM by Kinomescan method relative to control
[13] = biological target: Serine/threonine-protein kinase ULK2 (Homo sapiens) (UniProt Q8IYT8); assay: Binding affinity to wild-type human partial length ULK2 (M1 to S301 residues) expressed in mammalian expression system assessed as residual binding level at 10 uM by Kinomescan method relative to control
Serine/threonine-protein kinase ULK2 (Homo sapiens), sequence (Q8IYT8 whole entry, the tested form may be a part): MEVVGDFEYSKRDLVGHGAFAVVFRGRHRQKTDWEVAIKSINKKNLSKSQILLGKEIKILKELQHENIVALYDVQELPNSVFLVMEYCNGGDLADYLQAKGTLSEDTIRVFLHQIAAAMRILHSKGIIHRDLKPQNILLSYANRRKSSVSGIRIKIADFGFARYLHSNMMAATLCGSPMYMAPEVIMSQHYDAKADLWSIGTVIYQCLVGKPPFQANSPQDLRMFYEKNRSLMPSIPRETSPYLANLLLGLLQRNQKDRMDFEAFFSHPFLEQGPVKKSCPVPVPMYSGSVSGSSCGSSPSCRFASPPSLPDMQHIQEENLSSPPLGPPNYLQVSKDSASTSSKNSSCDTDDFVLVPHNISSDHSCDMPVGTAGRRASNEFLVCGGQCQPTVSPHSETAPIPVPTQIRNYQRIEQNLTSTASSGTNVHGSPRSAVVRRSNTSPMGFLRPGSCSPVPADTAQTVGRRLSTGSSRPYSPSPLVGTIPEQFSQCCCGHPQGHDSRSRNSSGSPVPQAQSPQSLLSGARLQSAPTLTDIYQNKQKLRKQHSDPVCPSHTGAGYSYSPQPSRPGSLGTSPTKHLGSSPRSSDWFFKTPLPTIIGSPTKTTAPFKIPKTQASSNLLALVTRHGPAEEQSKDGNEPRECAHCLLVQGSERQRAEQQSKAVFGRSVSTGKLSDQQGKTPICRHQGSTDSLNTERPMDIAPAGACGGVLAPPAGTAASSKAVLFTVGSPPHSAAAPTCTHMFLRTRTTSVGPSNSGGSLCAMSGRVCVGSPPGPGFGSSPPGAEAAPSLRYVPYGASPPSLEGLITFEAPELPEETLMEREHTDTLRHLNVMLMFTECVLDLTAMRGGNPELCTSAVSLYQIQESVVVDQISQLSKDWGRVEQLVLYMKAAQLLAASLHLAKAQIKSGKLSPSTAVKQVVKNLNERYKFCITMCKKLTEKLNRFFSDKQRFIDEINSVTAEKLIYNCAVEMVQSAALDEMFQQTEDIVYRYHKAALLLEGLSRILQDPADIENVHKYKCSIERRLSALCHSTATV

[14] = biological target: Serine/threonine-protein kinase TAO1 (Homo sapiens) (UniProt Q7L7X3); assay: Binding affinity to wild-type human partial length TAOK1 (M1 to A320 residues) expressed in mammalian expression system assessed as residual binding level at 10 uM by Kinomescan method relative to control
Serine/threonine-protein kinase TAO1 (Homo sapiens), sequence (Q7L7X3 whole entry, the tested form may be a part): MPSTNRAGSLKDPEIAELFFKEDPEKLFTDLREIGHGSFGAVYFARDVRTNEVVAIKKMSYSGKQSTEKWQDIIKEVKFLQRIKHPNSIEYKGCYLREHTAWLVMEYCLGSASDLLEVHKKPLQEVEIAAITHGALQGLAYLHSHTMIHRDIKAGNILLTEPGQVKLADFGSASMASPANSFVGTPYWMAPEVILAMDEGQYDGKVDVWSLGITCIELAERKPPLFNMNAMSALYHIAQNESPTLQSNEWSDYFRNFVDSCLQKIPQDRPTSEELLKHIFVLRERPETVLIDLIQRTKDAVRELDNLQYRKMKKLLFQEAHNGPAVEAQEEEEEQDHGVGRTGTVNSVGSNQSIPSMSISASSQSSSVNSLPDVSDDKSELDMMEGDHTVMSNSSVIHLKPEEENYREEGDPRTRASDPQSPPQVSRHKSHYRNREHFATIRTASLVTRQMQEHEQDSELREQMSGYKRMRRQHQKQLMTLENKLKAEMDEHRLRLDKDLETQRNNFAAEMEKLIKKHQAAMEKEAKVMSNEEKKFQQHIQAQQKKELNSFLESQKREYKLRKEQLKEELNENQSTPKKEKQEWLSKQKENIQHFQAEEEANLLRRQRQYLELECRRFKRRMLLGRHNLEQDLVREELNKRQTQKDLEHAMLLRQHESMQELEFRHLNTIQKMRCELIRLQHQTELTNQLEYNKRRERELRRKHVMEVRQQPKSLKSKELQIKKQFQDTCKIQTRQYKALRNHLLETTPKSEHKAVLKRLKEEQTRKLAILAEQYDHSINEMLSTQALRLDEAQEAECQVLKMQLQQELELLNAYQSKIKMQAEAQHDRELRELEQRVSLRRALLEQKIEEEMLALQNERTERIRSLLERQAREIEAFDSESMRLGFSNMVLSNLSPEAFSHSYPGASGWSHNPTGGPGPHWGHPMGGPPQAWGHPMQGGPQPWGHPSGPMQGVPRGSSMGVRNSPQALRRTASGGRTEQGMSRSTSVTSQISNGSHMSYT

[15] = biological target: Serine/threonine-protein kinase TAO3 (Homo sapiens) (UniProt Q9H2K8); assay: Binding affinity to wild-type human partial length TAOK3 (M1 to T316 residues) expressed in mammalian expression system assessed as residual binding level at 10 uM by Kinomescan method relative to control
[16] = biological target: Protein kinase C iota type (Homo sapiens) (UniProt P41743); assay: Binding affinity to wild-type human partial length PRKCI (H215 to V587 residues) expressed in mammalian expression system assessed as residual binding level at 10 uM by Kinomescan method relative to control
[17] = biological target: Mitogen-activated protein kinase kinase kinase 5 (Homo sapiens) (UniProt Q99683); assay: Binding affinity to wild-type human partial length ASK1 (E648 to S964 residues) expressed in bacterial expression system assessed as residual binding level at 10 uM by Kinomescan method relative to control
[18] = biological target: MAP kinase-interacting serine/threonine-protein kinase 2 (Homo sapiens) (UniProt Q9HBH9); assay: Binding affinity to wild-type human partial length MKNK2 (G63 to S388 residues) expressed in mammalian expression system assessed as residual binding level at 10 uM by Kinomescan method relative to control
MAP kinase-interacting serine/threonine-protein kinase 2 (Homo sapiens), sequence (Q9HBH9 whole entry, looked up, the tested form may be a part): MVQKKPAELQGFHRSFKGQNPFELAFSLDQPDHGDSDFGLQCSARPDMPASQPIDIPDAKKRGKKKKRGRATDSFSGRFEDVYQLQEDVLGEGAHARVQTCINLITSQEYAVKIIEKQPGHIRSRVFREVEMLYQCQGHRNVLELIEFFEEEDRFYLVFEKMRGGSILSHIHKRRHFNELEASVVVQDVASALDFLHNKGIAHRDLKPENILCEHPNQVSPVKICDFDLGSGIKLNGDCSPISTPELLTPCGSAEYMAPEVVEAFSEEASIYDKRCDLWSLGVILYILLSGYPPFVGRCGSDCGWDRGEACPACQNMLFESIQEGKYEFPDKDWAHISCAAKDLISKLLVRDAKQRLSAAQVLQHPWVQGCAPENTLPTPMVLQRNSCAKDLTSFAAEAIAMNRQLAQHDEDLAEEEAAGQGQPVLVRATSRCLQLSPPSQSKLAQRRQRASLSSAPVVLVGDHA

[19] = biological target: Homeodomain-interacting protein kinase 3 (Homo sapiens) (UniProt Q9H422); assay: Binding affinity to wild-type human partial length HIPK3 (M153 to N562 residues) expressed in mammalian expression system assessed as residual binding level at 10 uM by Kinomescan method relative to control
[20] = biological target: NUAK family SNF1-like kinase 2 (Homo sapiens) (UniProt Q9H093); assay: Binding affinity to wild-type human partial length SNARK (P22 to A333 residues) expressed in mammalian expression system assessed as residual binding level at 10 uM by Kinomescan method relative to control
[21] = biological target: Serine/threonine-protein kinase 36 (Homo sapiens) (UniProt Q9NRP7); assay: Binding affinity to wild-type human partial length STK36 (M1 to T271 residues) expressed in bacterial expression system assessed as residual binding level at 10 uM by Kinomescan method relative to control
Serine/threonine-protein kinase 36 (Homo sapiens), sequence (Q9NRP7 whole entry, the tested form may be a part): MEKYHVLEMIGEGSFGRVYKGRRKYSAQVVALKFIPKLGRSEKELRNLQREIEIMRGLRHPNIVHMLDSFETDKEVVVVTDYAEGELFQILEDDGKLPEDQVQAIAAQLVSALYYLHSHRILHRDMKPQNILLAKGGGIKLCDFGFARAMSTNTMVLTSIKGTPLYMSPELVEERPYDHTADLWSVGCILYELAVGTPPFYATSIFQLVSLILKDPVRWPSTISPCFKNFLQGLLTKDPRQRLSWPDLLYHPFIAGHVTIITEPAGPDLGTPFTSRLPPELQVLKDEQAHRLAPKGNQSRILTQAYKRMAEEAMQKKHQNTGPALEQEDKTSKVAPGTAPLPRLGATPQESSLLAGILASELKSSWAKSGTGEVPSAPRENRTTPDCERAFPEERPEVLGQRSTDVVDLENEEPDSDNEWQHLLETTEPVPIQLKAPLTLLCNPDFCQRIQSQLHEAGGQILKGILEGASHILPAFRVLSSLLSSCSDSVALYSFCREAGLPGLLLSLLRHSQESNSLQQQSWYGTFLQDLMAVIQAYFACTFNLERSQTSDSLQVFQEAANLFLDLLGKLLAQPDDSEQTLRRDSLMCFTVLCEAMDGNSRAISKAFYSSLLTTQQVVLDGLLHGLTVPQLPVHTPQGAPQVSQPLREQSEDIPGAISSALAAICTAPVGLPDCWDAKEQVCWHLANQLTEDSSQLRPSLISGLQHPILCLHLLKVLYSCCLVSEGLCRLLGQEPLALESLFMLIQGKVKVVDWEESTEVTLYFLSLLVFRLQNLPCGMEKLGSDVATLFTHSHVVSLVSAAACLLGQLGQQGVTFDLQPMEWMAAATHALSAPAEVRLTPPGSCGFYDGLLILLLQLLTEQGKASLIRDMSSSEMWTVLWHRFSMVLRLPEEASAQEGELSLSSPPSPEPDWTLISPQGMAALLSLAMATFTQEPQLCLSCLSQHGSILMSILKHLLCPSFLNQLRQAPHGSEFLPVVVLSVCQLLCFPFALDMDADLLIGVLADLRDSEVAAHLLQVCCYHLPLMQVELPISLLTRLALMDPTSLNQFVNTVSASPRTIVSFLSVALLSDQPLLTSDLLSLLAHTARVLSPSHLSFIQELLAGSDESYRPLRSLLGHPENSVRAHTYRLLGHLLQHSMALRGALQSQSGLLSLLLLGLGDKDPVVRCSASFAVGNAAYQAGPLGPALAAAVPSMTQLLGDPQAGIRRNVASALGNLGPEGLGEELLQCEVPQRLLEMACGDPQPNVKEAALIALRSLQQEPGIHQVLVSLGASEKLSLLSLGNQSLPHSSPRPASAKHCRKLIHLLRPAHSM

[22] = biological target: Maternal embryonic leucine zipper kinase (Homo sapiens) (UniProt Q14680); assay: Binding affinity to wild-type human full length MELK (M1 to V651 residues) expressed in bacterial expression system assessed as residual binding level at 10 uM by Kinomescan method relative to control
[23] = tested on: Receptor-type tyrosine-protein kinase FLT3 (Homo sapiens), P36888 [UNDEFINED MUTATION]; assay: Binding affinity to human partial length FLT3 ITD/F691L double mutant expressed in bacterial expression system assessed as residual binding level at 10 uM by Kinomescan method relative to control
[24] = biological target: Phosphatidylinositol 4,5-bisphosphate 3-kinase catalytic subunit delta isoform (Homo sapiens) (UniProt O00329); assay: Binding affinity to wild-type human partial length PIK3CD (R108 to Q1044 residues) expressed in mammalian expression system assessed as residual binding level at 10 uM by Kinomescan method relative to control

## O=C(Nc1cc(-c2cn(CCNc3c4c(nc5ccccc35)CCCC4)nn2)ccn1)Nc1cccc2c1C1CCCCN1C2=O (racemic)
[1]
  Activity: 100%
[2]
  Activity: 62%
[3]
  Activity: 91%
[4]
  Activity: 0.05%
[5]
  Activity: 69%
[6]
  Activity: 91%
[7]
  Activity: 48%
[8]
  Activity: 2.7%
[9]
  Activity: 48%
[10]
  Activity: 38%
[11]
  Activity: 3.9%
[12]
  Activity: 0.1%
[13]
  Activity: 16%
[14]
  Activity: 2.6%
[15]
  Activity: 3.8%
[16]
  Activity: 100%
[17]
  Activity: 80%
[18]
  Activity: 72%
[19]
  Activity: 99%
[20]
  Activity: 1.9%
[21]
  Activity: 9.1%
[22]
  Activity: 14%
[23]
  Activity: 0.25%
[24]
  Activity: 100%
